Experimental data taken from patent US20240166683A1, “CHEMICAL TOOLS FOR RNA 3D STRUCTURE DETERMINATION IN VIVO” (UNIVERSITY OF SOUTHERN CALIFORNIA, priority 2022, published 2024).

Experiments:
model RNA 1 = experiment: In vitro crosslinking of model RNA 1 duplex, measured by polyacrylamide electrophoresis; format: biochemical; details: 100 mM activated dicarboxylic acid, 10 μM model RNA 1, MOPS pH 7.5, 4 h at room temperature, PAGE
Protocol: All experiments were performed in triplicate.
Source data are provided as a Source Data file.

[1] = Hydrolysis of the acylating reagent at physiological pH, measured by NMR; format: physicochemical
Protocol: We activated a set of eight dicarboxylic acids with diverse linker lengths and chemical properties (FIG. 1e). The efficiency of crosslinking RNA 1 was measured by polyacrylamide electrophoresis (FIG. 1e). […] This can be potentially explained by the inductive effect of the beta oxygen that substantially increases the reactivity of the activated ester, making it more susceptible to hydrolysis.
(§1) a, Minimal and maximal possible lengths between the crosslinked 2′ oxygen groups in RNA, estimated in PyMOL. Hydroxyl groups are represented by the green oxygen atoms. […] The three lanes represent triplicate experiments. c, Reaction scheme of hydrolysis reaction of DPI. d, Hydrolysis of DPI in phosphate buffer pH 7.4 analyzed by NMR spectroscopy over time. e, Formation of hydrolyzed DPI products over time. After ˜30 min all DPI has been hydrolyzed. f, Hydrolysis of ApA in 100 mM borate buffer pH 10.0 analyzed by NMR spectroscopy over time. g, Formation of hydrolyzed ApA products over time, based on quantification of panel f. […] The three lanes represent triplicate experiments. i, An increase in crosslink reversal (=decrease in crosslinked RNA) is observed at increased pH and temperature, based on quantification of gel pictures in panel h. […]

HEK293 cells = experiment: In-cell SHARC crosslinking, recovery of crosslinked RNA fragments from DD2D gel; format: cell-based, human; details: HEK293 cells, 5, 12.5, or 25 mM DPI, RNase III fragmentation
Protocol: SHARC-exo accurately measures static and dynamic spatial distances in RNA in cells. To test SHARC-exo, we first crosslinked HEK293 cells with DPI, fragmented RNA with RNase III, and isolated the crosslinked fragments using the DD2D gel method. We recovered 1-2% RNA fragments as crosslinked using 5, 12.5, or 25 mM DPI. We sequenced the SHARC-exo libraries and observed 3.3-14.5% of the reads are gapped, similar to PARIS. Crosslinked reads are highly reproducible at different DPI concentrations.
In vivo crosslinking. Hela and HEK293T cells with 80% confluency in a 10 cm dish were washed twice with 1× phosphate-buffered saline (PBS). […]
a, RNase R reduces arm length in PARIS-exo. b, RNase R trimming leads to enrichment of U at the 5th nucleotide from the 3′ end. c-e, An example of precise crosslink site identification using PARIS-exo. c, vertical lines indicate the 3′ ends (median) from PARIS and PARIS-exo reads. d, The PARIS-exo derived 3′ ends and crosslinking sites are mapped to the H79 and ES31 of human 28S secondary structure. e, cryo-EM structure of H79 and ES31 (PDB: 4V6X). f, HEK293 cells are crosslinked with DPI at different concentrations. […] The smear above the diagonal represents crosslinked RNA. h, Quantification of the recovery of crosslinked RNA fragments from the DD2D gel system (replicates n=9, 16 and 4 for the 3 conditions, respectively). […]

[2] = Hydrolysis in borate buffer/DMSO at pH 10.0, monitored by 1H NMR; format: physicochemical
From the text: Reversing 2′-hydroxyl crosslinking under mild alkaline conditions without RNA damage. Reversal of the crosslinks is necessary for subsequent sequence analysis. We hypothesized that the lower stability of the 2′-acylation products relative to the phosphodiester bonds could allow selective crosslink reversal without causing RNA chain breaks. To test this, we first analyzed the rate of phosphodiester cleavage in a model RNA dinucleotide ApA (FIG. 1f). We compared it to the methyl ester of dipicolinic acid 2 (FIG. 1g), a simple ester derivative of the SHARC reagent DPI. The two compounds were incubated in a 3:1 mixture of 100 mM borate buffer and DMSO at pH 10.0, and the stability was monitored over time by ^1H NMR (FIG. 1h). […] In contrast, compound 2 was fully hydrolyzed after ˜120 min, with a rate constant of 3.5*10^−4 (FIG. 1g). From this we concluded that the ˜1000-fold difference in rate constant should provide sufficient opportunity to selectively reverse the crosslinks under mild alkaline conditions without RNA damage.
as §1

[3] = 3:1 100 mM borate buffer/DMSO, pH 10.0, 5 mM starting concentration

O=C(COCC(=O)n1ccnc1)n1ccnc1 [Activated diglycolic acid]
crosslinking efficiency of RNA 1 (model RNA 1): 27%

O=C(CCCC(=O)n1ccnc1)n1ccnc1 [Activated glutaric acid]
crosslinking efficiency of RNA 1 (model RNA 1): 94%

O=C(c1cccc(C(=O)n2ccnc2)n1)n1ccnc1 [DPI, dipicolinic acid imidazolide]
time after which all DPI has been hydrolyzed ([1]; phosphate buffer pH 7.4, NMR): ~30 min
time after which 50% was hydrolyzed ([1]; physiological pH 7.4, room temperature, NMR): 5 min
RNA fragments recovered as crosslinked (HEK293 cells): 1-2%

COC(=O)c1cccc(C(=O)OC)n1 [compound 2, methyl ester of dipicolinic acid]
rate constant of hydrolysis [2, 3]: 3.5*10^−4
time to full hydrolysis [2, 3]: ~120 min
difference in rate constant, compound 2 vs ApA ([2]; pH 10.0): ~1000 fold
